Measurements taken from PubChem BioAssay (NCI).
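Grown in 96-well plates, cells were treated for 48 hours with each compound at five concentrations. Insufficient inhibition: endpoint recorded as highest concentration tested. TGI is the concentration that stops growth completely.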

Key:
Assay in all cases: NCI anticancer screen, dose series, 48 h
NCI/ADR-RES ovarian = test system: NCI/ADR-RES ovarian
HS 578T breast = test system: HS 578T breast
SF-295 CNS = test system: SF-295 CNS
OVCAR-4 ovarian = test system: OVCAR-4 ovarian
SK-OV-3 ovarian = test system: SK-OV-3 ovarian
MOLT-4 leukemia = test system: MOLT-4 leukemia
IGROV1 ovarian = test system: IGROV1 ovarian
SNB-19 CNS = test system: SNB-19 CNS
UO-31 renal = test system: UO-31 renal
NCI-H23 lung = test system: NCI-H23 lung
SR leukemia = test system: SR leukemia
K-562 leukemia = test system: K-562 leukemia
MDA-N = test system: MDA-N
SK-MEL-5 melanoma = test system: SK-MEL-5 melanoma
NCI-H226 lung = test system: NCI-H226 lung
MALME-3M melanoma = test system: MALME-3M melanoma
COLO 205 colon = test system: COLO 205 colon
RXF 393 renal = test system: RXF 393 renal
KM12 colon = test system: KM12 colon
HCT-15 colon = test system: HCT-15 colon
NCI-H460 lung = test system: NCI-H460 lung
PC-3 prostate = test system: PC-3 prostate
SW-620 colon = test system: SW-620 colon
MDA-MB-231 breast = test system: MDA-MB-231 breast
HCC-2998 colon = test system: HCC-2998 colon
SN12C renal = test system: SN12C renal
OVCAR-5 ovarian = test system: OVCAR-5 ovarian
HOP-92 NSCLC = test system: HOP-92 NSCLC
OVCAR-3 ovarian = test system: OVCAR-3 ovarian
LOX IMVI melanoma = test system: LOX IMVI melanoma
TK-10 renal = test system: TK-10 renal
BT-549 breast = test system: BT-549 breast
A549 NSCLC = test system: A549 NSCLC
UACC-257 melanoma = test system: UACC-257 melanoma
RPMI-8226 leukemia = test system: RPMI-8226 leukemia
M14 melanoma = test system: M14 melanoma
HCT-116 colon = test system: HCT-116 colon
MDA-MB-435 = test system: MDA-MB-435
A498 renal = test system: A498 renal
HT29 colon = test system: HT29 colon
SF-268 CNS = test system: SF-268 CNS
HL-60(TB) leukemia = test system: HL-60(TB) leukemia
T-47D breast = test system: T-47D breast
EKVX NSCLC = test system: EKVX NSCLC
OVCAR-8 ovarian = test system: OVCAR-8 ovarian
CCRF-CEM leukemia = test system: CCRF-CEM leukemia
ACHN renal = test system: ACHN renal
SK-MEL-2 melanoma = test system: SK-MEL-2 melanoma
SF-539 CNS = test system: SF-539 CNS
CAKI-1 renal = test system: CAKI-1 renal
UACC-62 melanoma = test system: UACC-62 melanoma
SK-MEL-28 melanoma = test system: SK-MEL-28 melanoma
U251 CNS = test system: U251 CNS
DU-145 prostate = test system: DU-145 prostate
786-0 renal = test system: 786-0 renal
HOP-62 NSCLC = test system: HOP-62 NSCLC
SNB-75 CNS = test system: SNB-75 CNS
MCF7 breast = test system: MCF7 breast
NCI-H522 lung = test system: NCI-H522 lung
XF 498 CNS = test system: XF 498 CNS
DLD-1 colon = test system: DLD-1 colon
LXFL 529 NSCLC = test system: LXFL 529 NSCLC
M19-MEL melanoma = test system: M19-MEL melanoma
DMS 114 small cell lung = test system: DMS 114 small cell lung
DMS 273 small cell lung = test system: DMS 273 small cell lung
SNB-78 CNS = test system: SNB-78 CNS

For `CC(=O)NNc1nc(C)c(C(/C=C/c2ccc([N+](=O)[O-])cc2)=N/N)s1`, the TGI (NCI/ADR-RES ovarian) was greater than 100 µM, the TGI (HS 578T breast) was greater than 100 µM and the TGI (SF-295 CNS) was greater than 100 µM. For the same compound, the TGI (OVCAR-4 ovarian) was greater than 100 µM, the TGI (SK-OV-3 ovarian) was greater than 100 µM and the TGI (MOLT-4 leukemia) was greater than 100 µM. The TGI (IGROV1 ovarian) was greater than 100 µM, the TGI (SNB-19 CNS) was greater than 100 µM and the TGI (UO-31 renal) was greater than 100 µM. It also gave a TGI (NCI-H23 lung) greater than 100 µM, a TGI (SR leukemia) greater than 100 µM and a TGI (K-562 leukemia) greater than 100 µM. The TGI (MDA-N) was greater than 100 µM, the TGI (SK-MEL-5 melanoma) was greater than 100 µM and the TGI (NCI-H226 lung) was greater than 100 µM. It also gave a TGI (MALME-3M melanoma) greater than 100 µM, a TGI (COLO 205 colon) greater than 100 µM and a TGI (RXF 393 renal) greater than 100 µM. For the same compound, the TGI (KM12 colon) was greater than 100 µM, the TGI (HCT-15 colon) was greater than 100 µM and the TGI (NCI-H460 lung) was greater than 100 µM. The TGI (PC-3 prostate) was greater than 100 µM, the TGI (SW-620 colon) was greater than 100 µM and the TGI (MDA-MB-231 breast) was 95.4 µM. For the same compound, the TGI (HCC-2998 colon) was greater than 100 µM, the TGI (SN12C renal) was greater than 100 µM and the TGI (OVCAR-5 ovarian) was greater than 100 µM. For the same compound, the TGI (HOP-92 NSCLC) was greater than 100 µM, the TGI (OVCAR-3 ovarian) was greater than 100 µM and the TGI (LOX IMVI melanoma) was greater than 100 µM. The TGI (TK-10 renal) was greater than 100 µM, the TGI (BT-549 breast) was greater than 100 µM and the TGI (A549 NSCLC) was greater than 100 µM. The TGI (UACC-257 melanoma) was greater than 100 µM, the TGI (RPMI-8226 leukemia) was 89.2 µM and the TGI (M14 melanoma) was greater than 100 µM. The TGI (HCT-116 colon) was greater than 100 µM, the TGI (MDA-MB-435) was greater than 100 µM and the TGI (A498 renal) was greater than 100 µM. It also gave a TGI (HT29 colon) greater than 100 µM, a TGI (SF-268 CNS) greater than 100 µM and a TGI (HL-60(TB) leukemia) greater than 100 µM. The TGI (T-47D breast) was greater than 100 µM, the TGI (EKVX NSCLC) was greater than 100 µM and the TGI (OVCAR-8 ovarian) was greater than 100 µM. It also gave a TGI (CCRF-CEM leukemia) greater than 100 µM, a TGI (ACHN renal) greater than 100 µM and a TGI (SK-MEL-2 melanoma) greater than 100 µM. The TGI (SF-539 CNS) was greater than 100 µM, the TGI (CAKI-1 renal) was greater than 100 µM and the TGI (UACC-62 melanoma) was greater than 100 µM. For the same compound, the TGI (SK-MEL-28 melanoma) was greater than 100 µM, the TGI (U251 CNS) was greater than 100 µM and the TGI (DU-145 prostate) was greater than 100 µM. The TGI (786-0 renal) was greater than 100 µM, the TGI (HOP-62 NSCLC) was greater than 100 µM and the TGI (SNB-75 CNS) was greater than 100 µM. The TGI (MCF7 breast) was greater than 100 µM and the TGI (NCI-H522 lung) was greater than 100 µM.

`CN(C)c1nc(N(C)C)nc(N(C)CN(C)c2ccc(Cl)cc2)n1` gave a TGI (SF-295 CNS) greater than 100 µM, a TGI (OVCAR-4 ovarian) greater than 100 µM and a TGI (SK-OV-3 ovarian) greater than 100 µM. It also gave a TGI (MOLT-4 leukemia) greater than 100 µM, a TGI (IGROV1 ovarian) greater than 100 µM and a TGI (SNB-19 CNS) greater than 100 µM. For the same compound, the TGI (UO-31 renal) was greater than 100 µM, the TGI (NCI-H23 lung) was greater than 100 µM and the TGI (XF 498 CNS) was greater than 100 µM. The TGI (K-562 leukemia) was greater than 100 µM, the TGI (SK-MEL-5 melanoma) was greater than 100 µM and the TGI (NCI-H226 lung) was greater than 100 µM. The TGI (MALME-3M melanoma) was greater than 100 µM, the TGI (DLD-1 colon) was greater than 100 µM and the TGI (RXF 393 renal) was greater than 100 µM. For the same compound, the TGI (KM12 colon) was greater than 100 µM, the TGI (HCT-15 colon) was greater than 100 µM and the TGI (NCI-H460 lung) was greater than 100 µM. It also gave a TGI (SW-620 colon) greater than 100 µM, a TGI (SN12C renal) greater than 100 µM and a TGI (OVCAR-3 ovarian) greater than 100 µM. For the same compound, the TGI (LOX IMVI melanoma) was greater than 100 µM, the TGI (TK-10 renal) was greater than 100 µM and the TGI (A549 NSCLC) was greater than 100 µM. It also gave a TGI (UACC-257 melanoma) greater than 100 µM, a TGI (HCT-116 colon) greater than 100 µM and a TGI (LXFL 529 NSCLC) greater than 100 µM. It also gave a TGI (HT29 colon) greater than 100 µM, a TGI (SF-268 CNS) greater than 100 µM and a TGI (HL-60(TB) leukemia) greater than 100 µM. The TGI (M19-MEL melanoma) was greater than 100 µM, the TGI (OVCAR-8 ovarian) was greater than 100 µM and the TGI (CCRF-CEM leukemia) was greater than 100 µM. For the same compound, the TGI (ACHN renal) was greater than 100 µM, the TGI (DMS 114 small cell lung) was greater than 100 µM and the TGI (SK-MEL-2 melanoma) was greater than 100 µM. The TGI (SF-539 CNS) was greater than 100 µM, the TGI (UACC-62 melanoma) was greater than 100 µM and the TGI (SK-MEL-28 melanoma) was greater than 100 µM. The TGI (U251 CNS) was greater than 100 µM, the TGI (SNB-75 CNS) was greater than 100 µM and the TGI (NCI-H522 lung) was greater than 100 µM. For the same compound, the TGI (DMS 273 small cell lung) was greater than 100 µM and the TGI (SNB-78 CNS) was greater than 100 µM.
